Test results reported in paper PMC3805709 (Nature chemical biology, 2013).

Experiments:
CLC-ec1 [1] = molecular target: CLC-ec1 (Escherichia coli, UniProt P37019); experiment: biochemical
CLC-ec1 [2] = molecular target: CLC-ec1 (Escherichia coli, UniProt P37019, E148A); experiment: biochemical
CLC-ec1 (Escherichia coli, UniProt P37019, E148A), sequence (P37019 whole entry E148A): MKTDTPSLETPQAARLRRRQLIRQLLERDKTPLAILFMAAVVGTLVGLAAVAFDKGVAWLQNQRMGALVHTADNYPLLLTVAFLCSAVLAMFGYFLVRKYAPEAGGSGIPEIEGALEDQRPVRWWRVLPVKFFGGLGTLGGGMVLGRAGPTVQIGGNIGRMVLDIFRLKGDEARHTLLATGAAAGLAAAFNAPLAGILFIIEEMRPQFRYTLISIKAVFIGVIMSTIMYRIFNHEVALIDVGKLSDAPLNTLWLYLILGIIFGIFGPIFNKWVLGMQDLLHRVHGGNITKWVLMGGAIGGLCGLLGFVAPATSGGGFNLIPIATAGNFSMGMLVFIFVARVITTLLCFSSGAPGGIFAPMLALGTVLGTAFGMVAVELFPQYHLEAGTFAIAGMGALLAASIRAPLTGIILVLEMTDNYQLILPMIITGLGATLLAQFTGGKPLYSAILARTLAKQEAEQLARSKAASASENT

CLC-ec1 (Escherichia coli, UniProt P37019), sequence (P37019 whole entry): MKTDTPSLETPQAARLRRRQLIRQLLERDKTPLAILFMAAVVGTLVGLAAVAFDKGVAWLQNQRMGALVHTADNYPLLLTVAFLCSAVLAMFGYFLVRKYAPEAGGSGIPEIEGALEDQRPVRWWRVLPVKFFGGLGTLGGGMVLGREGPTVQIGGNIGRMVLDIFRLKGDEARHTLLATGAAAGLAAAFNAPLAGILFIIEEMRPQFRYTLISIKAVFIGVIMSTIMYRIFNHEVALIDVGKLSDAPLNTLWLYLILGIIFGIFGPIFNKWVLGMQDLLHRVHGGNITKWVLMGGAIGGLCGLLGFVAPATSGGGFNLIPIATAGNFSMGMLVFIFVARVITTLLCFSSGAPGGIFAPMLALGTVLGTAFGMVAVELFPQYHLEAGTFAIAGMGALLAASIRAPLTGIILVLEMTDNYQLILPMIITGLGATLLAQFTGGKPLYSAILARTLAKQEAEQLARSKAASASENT

Row | Compound | Kd (CLC-ec1 [1]) | Kd (CLC-ec1 [2])
1 | Cl [Cl^−] | 600 µM | 
2 | F [F^−] | 1000 µM | 180 µM
